The subject of one series is insects such as ants. Kind of series: Repellent activity (Test Example 14). It is filed as in vivo, pill bug. Particulars: 2 mL of 1% aqueous solution on tissue paper with 1 g honey, 8 hours. The method, then:
The repellent performance of the ozonized surfactant of the present invention was checked. […] In addition, 1 g of honey was instilled into the center. […] These specimens were placed on leaf mold in a flower bed, and the conditions were observed 8 hours later.

A short description of series [1]: Temporal change in oxidizing property (iodine titration method). It is filed as physicochemical. Conditions: 25° C. The text has this:
After deaerating the obtained aqueous ozonized surfactant solution to remove dissolved ozone gas by helium purging, the oxidizing property of the aqueous ozonized surfactant solution can be determined by the iodine titration method (see Non Patent Literature 1). Whether or not the aqueous ozonized surfactant solution maintains a function as a surfactant can be evaluated by checking whether or not frothing, which is a characteristic of surfactants, occurs when the solution is agitated or vibrated.
Meanwhile, oxygen was supplied from an oxygen cylinder into an ozonizer (ozonizer GR-RB made by Sumitomo Precision Products Co., Ltd.) at an oxygen flow rate of 0.3 L/min to ozonize the oxygen to produce ozone gas. Then, the ozone gas was dissolved in the above-described aqueous solution in a dissolving module (SEK model made by ERC Technology), and the aqueous solution was circulated at a flow rate of 1 L/min. […] Further, in 30 minutes, the concentration increased to 25 ppm (see FIG. 2). After deaerating the aqueous solution that had undergone about 30-minute ozone treatment to remove dissolved ozone gas by helium purging, oxidizing property of the aqueous solution was determined by the iodine titration method. As a result, the aqueous solution had oxidizing property, and frothing, which is a characteristic of surfactants, was observed. The results confirmed that ozonized Tween 80 had been produced. Further, a temporal change in the oxidizing property of the aqueous solution was determined by the iodine titration method at 25° C. for 20 days. As a result, the percentage of oxidizing property measured after 20 days to that measured just after preparation was 109%.
The solution A was diluted to a 1% aqueous solution, and a temporal change in the oxidizing property of the aqueous solution was determined by the iodine titration method at 25° C. for 700 days. As a result, the percentage of oxidizing property measured after 700 days to that measured just after preparation was 101%.

A further series concerns slug. Kind of series: Insecticidal activity: test of killing slugs. It counts as in vivo. Particulars: 1% aqueous solution, 2 pushes: 1.88 mL sprayed from 15 cm above. How it is done: In order to check the insect control performance of the ozonized surfactant, a test of killing slugs was performed. A slug was put into a glass petri dish. Onto the slug, a 1% aqueous solution of the ozonized surfactant obtained in Example 4, 5, 7, 9 or 10 (2 pushes: 1.88 mL) was sprayed from 15 cm above. After that, the time elapsed until the slug died (the motion stopped) was measured. As a control, the same evaluation was simultaneously performed with a commercial insecticide (product name: NEW Namekuji (slug) Spray, made by Sumitomo Chemical Garden Products Inc., Lot No. 11.05 0806JE) containing a natural substituted phenol, a copper compound and an alcohol, as active ingredients.

Series [2] deals with mold (filamentous fungus). Kind of series: Evaluation of antiseptic activity in thickener solution. Conditions: 0.1% in 3.5% Carbopol ETD2020 aqueous solution, 25° C. It counts as cell-based. The method, then:
In order to check the antiseptic performance of ozonized surfactants, the ozonized surfactants were added to a substance susceptible to mold. […] Into a 100 mL-glass bottle, 50 mL of the sample was charged. The bottles were kept at 25° C. in a thermostatic air chamber, and temporal changes were visually observed. […] The mold-like material was removed and examined under a 700-power microscope. As a result, spores were detected and the material was identified as a filamentous fungus. The above results confirmed the antiseptic activity of the ozonized surfactants.

A further series has as its system Orgyia thyellina larva. Nature of the series: Insecticidal activity: test of killing other insects. It counts as in vivo. Particulars: 2% aqueous solution, 1.88 mL sprayed. The method, then: (§1) In order to check the insect control performance of the ozonized surfactant, a test of killing other insects was performed. An Orgyia thyellina larva, a Sphrageidus similis larva, and an Arge pagana larva were put into separate glass petri dishes. Onto each insect pest, a 2% aqueous solution of the solution obtained in Example 5 (2 pushes: 1.88 mL) was sprayed from 15 cm above. After that, the time elapsed until each insect died (the motion stopped) was measured.

The test system of another series is Arge pagana larva. The series is described as above. It is filed as in vivo. Particulars: 2% aqueous solution, 1.88 mL sprayed. How it is done:
as §1

Series [3] concerns Sphrageidus similis larva. Described as above. It is filed as in vivo. Particulars: 2% aqueous solution, 1.88 mL sprayed. How it is done:
as §1

A short description of series [4]: Surface-active property test (contact angle). It counts as physicochemical. How it is done:
The surface-active properties of ozonized surfactants were determined in the following manner. Aqueous solutions each containing 1% Tween 80, POE (10 EO) oleyl ether or POE (20 EO) oleyl ether (all of which were made by Wako Pure Chemical Industries, Ltd.) were prepared. Each solution was dropped on a polyvinyl chloride plate and measured for a contact angle (θ) with the use of a contact angle meter CA-VP (made by Kyowa Interface Science Co., Ltd.). The same measurement was carried out for a 1% aqueous solution of the ozonized surfactant obtained in Example 1, 4, or 8.

For `CCCCCCCC/C=C\CCCCCCCC[N+](C)(C)CCCCCCCC/C=C\CCCCCCCC.[Cl-]` [Unozonized surfactant of Ex. 10, dimethyldioleylammonium chloride, reference compound], the “ants gathered on the specimen” value with insects such as ants amounted to 15 ants.

Regarding “Ozonized POE (20 EO) oleyl ether [Example 8]”, in series [1] (1% aqueous solution, 300 days), the “percentage of oxidizing property measured after 300 days to that measured just after preparation” value turned out to be 100%.

Regarding “Ozonized POE sorbitan monooleate (20 EO) [Example 7]”, the “Death time of slug” value in the series with slug was 244 s. Moreover, in series [1] (1% aqueous solution, 700 days), the “percentage of oxidizing property measured after 700 days to that measured just after preparation” value is on record as 100%.

Turning to “Ozonized decaglycerin monooleate [Example 6]”, in the series on insects such as ants, the “insects gathered on the specimen” value was “did not gather at all”. Besides, in series [2], the “Antiseptic activity of thickener soln. (visually observed), 1 month after” value is reported as “Good” and the “Antiseptic activity of thickener soln. (visually observed), 1 week after” value was “Good”.

For “Ozonized polyethylene glycol monooleate [Example 5]”, the Death time in the series with Orgyia thyellina larva was 100 s; with Arge pagana larva it was 115 s; in series [3], 130 s. For the same compound, in the series on slug, the “Death time of slug” value came to 729 s. Besides, the “Antiseptic activity of thickener soln. (visually observed), 1 month after” value in series [2] was “Good”. The “Antiseptic activity of thickener soln. (visually observed), 1 week after” value in series [2] is “Good”. For the same compound, the “percentage of oxidizing property measured after 180 days to that measured just after preparation” value in series [1] (1% aqueous solution, 180 days) was determined as 100%.

As for POE (20 EO) oleyl ether, the “Contact angle, After ozonization” value in series [4] (1% aqueous solution of the ozonized surfactant obtained in Example 1, 4, or 8, on polyvinyl chloride plate) is 26.7 degree (°). In addition, the “Contact angle, Before ozonization” value in series [4] (1% aqueous solution on polyvinyl chloride plate, ion exchange water 87.3°) is given as 59.4 degree (°).

Regarding “decaglycerin monooleate [Decaglycerol monooleate, reference compound]”, in the series with insects such as ants, the “ants gathered on the specimen” value is 10 ants.

Consider ozonized Tween 80 [Example 1], for which the “percentage of oxidizing property measured after 20 days to that measured just after preparation” value in series [1] (0.1% aqueous solution, 20 days) worked out at 109%.

The record behind these values is US20100254928A1, “NOVEL COMPOSITION CONTAINING OZONIZED SURFACTANT” (priority 2007, published 2010).
